Results published in patent US10670605B2, “Cysteine reactive probes and uses thereof” (The Scripps Research Institute, priority 2015, dated 2020).

Assays:
Assay in all cases: Competitive isoTOP-ABPP in situ (fragment-treated cells)
Type in all cases: cell-based
[1] = target: cysteines in MDA-MB-231 and Ramos cells (Homo sapiens, UniProt O75362); conditions: 200 μM, insitu
[2] = target: cysteines in MDA-MB-231 and Ramos cells (Homo sapiens, UniProt Q9BRJ7); conditions: for isoTOP-ABPP ratio Q9BRJ7_C88: 200 μM, insitu, 231
Sequence of cysteines in MDA-MB-231 and Ramos cells (Homo sapiens, UniProt Q9BRJ7) (Q9BRJ7 whole entry): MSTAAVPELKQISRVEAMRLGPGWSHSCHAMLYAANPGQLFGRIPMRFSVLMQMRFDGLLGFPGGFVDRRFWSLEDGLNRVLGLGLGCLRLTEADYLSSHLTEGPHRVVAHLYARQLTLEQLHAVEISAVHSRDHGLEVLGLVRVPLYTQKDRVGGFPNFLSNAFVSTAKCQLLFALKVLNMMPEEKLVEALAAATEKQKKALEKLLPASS

[3] = target: cysteines in MDA-MB-231 and Ramos cells (Homo sapiens, UniProt O60825); conditions: 200 μM, insitu
Sequence of cysteines in MDA-MB-231 and Ramos cells (Homo sapiens, UniProt O60825) (O60825 whole entry): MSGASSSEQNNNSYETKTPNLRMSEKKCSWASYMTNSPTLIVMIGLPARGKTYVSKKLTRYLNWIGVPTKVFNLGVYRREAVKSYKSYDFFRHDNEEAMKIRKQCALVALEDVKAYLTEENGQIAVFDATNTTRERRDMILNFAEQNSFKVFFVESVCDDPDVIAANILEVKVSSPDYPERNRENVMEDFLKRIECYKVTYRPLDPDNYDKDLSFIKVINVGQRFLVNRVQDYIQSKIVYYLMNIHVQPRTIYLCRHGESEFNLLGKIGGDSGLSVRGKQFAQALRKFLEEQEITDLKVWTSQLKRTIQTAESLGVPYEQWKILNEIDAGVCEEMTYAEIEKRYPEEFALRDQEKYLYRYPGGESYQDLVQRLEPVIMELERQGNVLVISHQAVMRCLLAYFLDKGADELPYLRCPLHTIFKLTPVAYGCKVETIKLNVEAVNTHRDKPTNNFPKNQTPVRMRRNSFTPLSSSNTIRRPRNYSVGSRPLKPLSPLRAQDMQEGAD

[4] = target: T1, cysteines in MDA-MB-231 and Ramos cells (Homo sapiens, UniProt Q07065); conditions: 200 μM, insitu, 231
T1 sequence (Q07065 1-602): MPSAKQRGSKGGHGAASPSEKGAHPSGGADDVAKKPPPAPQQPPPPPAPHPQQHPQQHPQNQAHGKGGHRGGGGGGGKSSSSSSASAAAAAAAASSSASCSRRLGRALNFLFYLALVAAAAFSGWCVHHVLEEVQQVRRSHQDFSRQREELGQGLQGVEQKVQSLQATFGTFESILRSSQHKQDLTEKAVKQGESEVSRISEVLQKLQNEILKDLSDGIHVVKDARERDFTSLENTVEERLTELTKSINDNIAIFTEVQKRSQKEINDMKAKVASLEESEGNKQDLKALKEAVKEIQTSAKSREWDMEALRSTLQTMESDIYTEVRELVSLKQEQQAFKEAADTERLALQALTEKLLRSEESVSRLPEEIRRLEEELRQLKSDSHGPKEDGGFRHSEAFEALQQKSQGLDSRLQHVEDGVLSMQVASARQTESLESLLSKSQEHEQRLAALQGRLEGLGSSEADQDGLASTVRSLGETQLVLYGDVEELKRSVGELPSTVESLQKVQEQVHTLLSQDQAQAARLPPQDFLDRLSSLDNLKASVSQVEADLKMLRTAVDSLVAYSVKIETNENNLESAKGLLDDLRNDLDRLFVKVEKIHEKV

[5] = target: T2, cysteines in MDA-MB-231 and Ramos cells (Homo sapiens, UniProt Q8NFH5); conditions: for isoTOP-ABPP ratio Q8NFH5_C255: 200 μM, insitu, 231
T2 sequence (Q8NFH5 1-326): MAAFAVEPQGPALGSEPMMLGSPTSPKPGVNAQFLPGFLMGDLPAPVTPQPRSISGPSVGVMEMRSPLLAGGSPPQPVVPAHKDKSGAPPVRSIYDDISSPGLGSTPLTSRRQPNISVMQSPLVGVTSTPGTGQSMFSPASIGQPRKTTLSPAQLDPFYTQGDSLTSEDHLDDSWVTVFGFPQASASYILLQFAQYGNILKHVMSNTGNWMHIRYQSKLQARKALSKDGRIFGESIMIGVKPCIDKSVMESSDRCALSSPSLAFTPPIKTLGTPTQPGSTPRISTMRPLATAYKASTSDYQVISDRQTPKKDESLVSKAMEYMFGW

[6] = target: cysteines in MDA-MB-231 and Ramos cells (Homo sapiens, UniProt P14635); conditions: 200 μM, insitu
Sequence of cysteines in MDA-MB-231 and Ramos cells (Homo sapiens, UniProt P14635) (P14635 whole entry): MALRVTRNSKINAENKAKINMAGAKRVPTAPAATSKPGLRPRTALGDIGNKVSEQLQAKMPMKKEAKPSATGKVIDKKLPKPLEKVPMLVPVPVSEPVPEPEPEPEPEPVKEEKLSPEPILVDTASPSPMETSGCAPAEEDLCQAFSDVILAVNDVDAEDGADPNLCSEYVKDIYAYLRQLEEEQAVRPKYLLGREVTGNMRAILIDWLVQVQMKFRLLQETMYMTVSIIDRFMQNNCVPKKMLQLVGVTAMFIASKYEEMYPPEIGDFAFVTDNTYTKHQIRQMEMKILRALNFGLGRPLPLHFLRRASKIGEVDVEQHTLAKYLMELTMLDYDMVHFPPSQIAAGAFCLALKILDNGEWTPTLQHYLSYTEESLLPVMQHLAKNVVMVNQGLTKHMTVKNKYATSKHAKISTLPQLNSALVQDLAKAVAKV

[7] = target: T3, cysteines in MDA-MB-231 and Ramos cells (Homo sapiens, UniProt Q6ICB0); conditions: 200 μM, insitu
T3 sequence (Q6ICB0 1-168): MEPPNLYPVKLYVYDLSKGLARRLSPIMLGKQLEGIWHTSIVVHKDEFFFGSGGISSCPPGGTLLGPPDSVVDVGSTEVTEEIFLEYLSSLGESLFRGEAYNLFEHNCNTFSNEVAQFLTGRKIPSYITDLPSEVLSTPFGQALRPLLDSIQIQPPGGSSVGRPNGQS

[8] = target: T4, cysteines in MDA-MB-231 and Ramos cells (Homo sapiens, UniProt O00244); conditions: 200 μM, insitu, 231
T4 sequence (O00244 1-68): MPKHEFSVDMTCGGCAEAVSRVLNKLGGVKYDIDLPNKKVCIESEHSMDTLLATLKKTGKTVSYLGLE

[9] = target: T5, cysteines in MDA-MB-231 and Ramos cells (Homo sapiens, UniProt Q9Y679)
T5 sequence (Q9Y679 1-410): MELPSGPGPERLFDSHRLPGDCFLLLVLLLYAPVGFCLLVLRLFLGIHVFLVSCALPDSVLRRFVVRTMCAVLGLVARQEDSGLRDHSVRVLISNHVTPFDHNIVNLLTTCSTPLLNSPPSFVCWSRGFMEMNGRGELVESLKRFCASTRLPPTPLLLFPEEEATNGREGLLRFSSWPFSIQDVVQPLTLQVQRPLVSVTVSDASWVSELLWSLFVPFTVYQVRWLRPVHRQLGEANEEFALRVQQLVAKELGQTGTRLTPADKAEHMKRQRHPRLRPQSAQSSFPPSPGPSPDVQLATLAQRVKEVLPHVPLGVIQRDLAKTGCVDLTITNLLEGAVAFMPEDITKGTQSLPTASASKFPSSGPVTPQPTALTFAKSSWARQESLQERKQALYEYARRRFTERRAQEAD

[10] = target: T6, cysteines in MDA-MB-231 and Ramos cells (Homo sapiens, UniProt Q15398); conditions: 200 μM, insitu, 231
T6 sequence (Q15398 1-846): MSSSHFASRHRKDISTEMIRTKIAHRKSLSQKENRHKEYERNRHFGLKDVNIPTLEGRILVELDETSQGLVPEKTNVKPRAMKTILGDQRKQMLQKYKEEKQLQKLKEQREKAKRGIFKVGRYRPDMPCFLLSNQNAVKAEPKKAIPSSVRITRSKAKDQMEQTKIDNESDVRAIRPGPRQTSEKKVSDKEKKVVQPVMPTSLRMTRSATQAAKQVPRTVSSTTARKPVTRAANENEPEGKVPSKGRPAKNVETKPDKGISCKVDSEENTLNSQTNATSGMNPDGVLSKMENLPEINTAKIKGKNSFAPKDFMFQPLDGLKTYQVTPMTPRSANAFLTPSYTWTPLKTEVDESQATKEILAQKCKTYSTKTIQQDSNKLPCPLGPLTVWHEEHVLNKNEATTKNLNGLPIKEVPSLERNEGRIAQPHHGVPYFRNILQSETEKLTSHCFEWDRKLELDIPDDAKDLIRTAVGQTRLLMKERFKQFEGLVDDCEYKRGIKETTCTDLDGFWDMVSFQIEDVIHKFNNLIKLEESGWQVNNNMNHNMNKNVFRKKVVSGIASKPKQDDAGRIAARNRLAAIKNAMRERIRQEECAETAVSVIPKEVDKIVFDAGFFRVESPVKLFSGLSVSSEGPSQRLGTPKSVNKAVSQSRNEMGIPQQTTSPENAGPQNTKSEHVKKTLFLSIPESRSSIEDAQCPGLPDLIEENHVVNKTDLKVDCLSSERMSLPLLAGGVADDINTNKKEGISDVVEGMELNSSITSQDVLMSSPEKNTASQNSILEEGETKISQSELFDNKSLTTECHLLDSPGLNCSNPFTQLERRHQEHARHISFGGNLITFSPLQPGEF

Sequence of cysteines in MDA-MB-231 and Ramos cells (Homo sapiens, UniProt O75362) (O75362 whole entry): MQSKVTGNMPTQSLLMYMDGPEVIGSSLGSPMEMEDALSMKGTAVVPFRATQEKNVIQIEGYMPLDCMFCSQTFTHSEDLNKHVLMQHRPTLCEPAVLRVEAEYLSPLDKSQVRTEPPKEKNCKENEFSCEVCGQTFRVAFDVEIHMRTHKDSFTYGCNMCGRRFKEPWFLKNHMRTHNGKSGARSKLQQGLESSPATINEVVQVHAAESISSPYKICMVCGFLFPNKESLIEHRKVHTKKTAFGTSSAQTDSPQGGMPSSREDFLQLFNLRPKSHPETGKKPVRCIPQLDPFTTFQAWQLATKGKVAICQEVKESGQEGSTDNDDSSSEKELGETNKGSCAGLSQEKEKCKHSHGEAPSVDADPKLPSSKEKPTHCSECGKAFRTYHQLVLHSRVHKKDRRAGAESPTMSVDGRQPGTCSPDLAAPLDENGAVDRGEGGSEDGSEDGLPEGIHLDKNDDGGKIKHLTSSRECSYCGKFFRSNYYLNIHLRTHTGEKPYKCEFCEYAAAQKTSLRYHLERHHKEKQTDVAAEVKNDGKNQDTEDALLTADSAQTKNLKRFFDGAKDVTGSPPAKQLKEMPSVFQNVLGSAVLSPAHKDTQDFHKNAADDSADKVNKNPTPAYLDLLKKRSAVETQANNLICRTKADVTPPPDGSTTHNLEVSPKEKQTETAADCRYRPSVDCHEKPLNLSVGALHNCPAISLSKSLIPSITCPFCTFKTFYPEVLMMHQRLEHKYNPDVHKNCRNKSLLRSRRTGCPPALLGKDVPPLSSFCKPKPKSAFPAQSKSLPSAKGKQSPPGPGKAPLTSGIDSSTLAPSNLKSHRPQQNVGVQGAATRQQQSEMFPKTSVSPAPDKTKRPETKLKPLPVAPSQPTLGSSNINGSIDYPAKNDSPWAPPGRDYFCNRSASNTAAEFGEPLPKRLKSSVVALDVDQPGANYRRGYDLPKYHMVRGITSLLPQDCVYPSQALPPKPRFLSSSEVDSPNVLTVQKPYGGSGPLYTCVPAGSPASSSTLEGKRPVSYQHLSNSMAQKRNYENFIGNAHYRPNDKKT

**Q.** For `COc1ccccc1OCCNC(=O)CCl` [compound 28], which “isoTOP-ABPP ratio O75362_C286” value [1]; 231 is on record?
**A.** 0.9

**Q.** What about the “isoTOP-ABPP ratio Q9BRJ7_C88” value [2] of the same compound?
**A.** 1.7

**Q.** `Cc1ccc(C=C(C#N)C(=O)NCCN2CCOCC2)cc1` [compound 41] was tested. Which “isoTOP-ABPP ratio O60825_C158” value [3]; 231 did it give?
**A.** 0.7

**Q.** What about the “isoTOP-ABPP ratio O75362_C286” value [1]; 231 of the same compound?
**A.** 1.0

**Q.** What about the “isoTOP-ABPP ratio Q07065_C100” value [4] of the same compound?
**A.** 1.0

**Q.** And the “isoTOP-ABPP ratio Q8NFH5_C255” value [5]?
**A.** 0.8

**Q.** And the “isoTOP-ABPP ratio P14635_C238” value [6]; 231?
**A.** 0.5

**Q.** `O=C(CCl)NC(=O)NC12CC3CC(CC(C3)C1)C2` [compound 12] was tested. Which “isoTOP-ABPP ratio O60825_C158” value [3]; 231 did it give?
**A.** 0.8

**Q.** What about the “isoTOP-ABPP ratio O75362_C286” value [1]; 231 of the same compound?
**A.** 20.0

**Q.** What about the “isoTOP-ABPP ratio, cysteine Q07065_C100” value [4] of the same compound?
**A.** 20.0

**Q.** What about the “isoTOP-ABPP ratio Q8NFH5_C255” value [5] of the same compound?
**A.** 12.4

**Q.** `O=C(CCl)NCCc1c[nH]c2ccccc12` [compound 13] was tested. Which “isoTOP-ABPP ratio Q6ICB0_C108” value ([7]; ramos) did it give?
**A.** 4.0

**Q.** And the “isoTOP-ABPP ratio O60825_C158” value ([3]; ramos)?
**A.** 0.9

**Q.** And the “isoTOP-ABPP ratio O75362_C286” value [1]; 231?
**A.** 1.1

**Q.** What about the “isoTOP-ABPP ratio O75362_C286” value ([1]; ramos) of the same compound?
**A.** 20.0

**Q.** And the “isoTOP-ABPP ratio, cysteine Q07065_C100” value [4]?
**A.** 1.6

**Q.** And the “isoTOP-ABPP ratio Q8NFH5_C255” value [5]?
**A.** 1.5

**Q.** And the “isoTOP-ABPP ratio, cysteine O00244_C12” value [8]?
**A.** 1.5

**Q.** And the “isoTOP-ABPP ratio, cysteine P14635_C238” value [6]; 231?
**A.** 1.3

**Q.** What about the “isoTOP-ABPP ratio, cysteine P14635_C238” value ([6]; ramos) of the same compound?
**A.** 1.5

**Q.** What does the source list for `O=C(CCl)N1CCC(Cc2ccccc2)CC1` [compound 9]?
**A.** isoTOP-ABPP reactivity Q07065_C100 CKAP4 [4]: 15.4; isoTOP-ABPP reactivity O00244_C12 ATOX1 [8]: 4.7; isoTOP-ABPP reactivity P14635_C238 CCNB1 [6]; 231: 3.7

**Q.** How did the “isoTOP-ABPP reactivity Q8NFH5_C255 NUP35” value ([5]; 100 μM in situ 231) turn out when `COc1ccc(C2CC(c3cccs3)=NN2C(=O)CCl)cc1` (centres unmarked) [compound 4] was run?
**A.** 3.9

**Q.** And the “isoTOP-ABPP reactivity Q9BRJ7_C88 NUDT16L1” value ([2]; 100 μM in situ 231)?
**A.** 20.0

**Q.** And the “isoTOP-ABPP reactivity Q9Y679_C391 AUP1” value ([9]; 100 μM in situ 231)?
**A.** 20.0

**Q.** Which “isoTOP-ABPP ratio Q6ICB0_C108” value [7]; 231 does the source give for `O=C(CCl)NC12CC3CC(CC(C3)C1)C2` [compound 21] here?
**A.** 0.6

**Q.** What about the “isoTOP-ABPP ratio O60825_C158” value [3]; 231 of the same compound?
**A.** 1.4

**Q.** What about the “isoTOP-ABPP ratio O75362_C286” value [1]; 231 of the same compound?
**A.** 1.1

**Q.** And the “isoTOP-ABPP ratio, cysteine Q07065_C100” value [4]?
**A.** 2.2

**Q.** What about the “isoTOP-ABPP ratio Q8NFH5_C255” value [5] of the same compound?
**A.** 1.8

**Q.** And the “isoTOP-ABPP ratio, cysteine O00244_C12” value [8]?
**A.** 0.7

**Q.** And the “isoTOP-ABPP ratio, cysteine Q9Y679_C391” value ([9]; 200 μM, insitu, 231)?
**A.** 1.5

**Q.** For `O=C(CCl)Nc1cccc2ncccc12` [compound 51], which “isoTOP-ABPP ratio Q6ICB0_C108” value [7]; 231 is on record?
**A.** 1.1

**Q.** What about the “isoTOP-ABPP ratio O60825_C158” value [3]; 231 of the same compound?
**A.** 0.9

**Q.** What about the “isoTOP-ABPP ratio Q9BRJ7_C88” value [2] of the same compound?
**A.** 1.0

**Q.** And the “isoTOP-ABPP ratio Q9Y679_C391” value ([9]; 200 μM, insitu, 231)?
**A.** 20.0

**Q.** What about the “isoTOP-ABPP ratio Q15398_C129” value [10] of the same compound?
**A.** 7.4
